Source: publication PMC5013292, “A Putative Bacterial ABC Transporter Circumvents the Essentiality of Signal Peptidase” (mBio, 2016)

Assays:
[1] = test system: S. aureus USA300 SpsB-low; test: MIC, USA300 SpsB-low; format: cell-based; conditions: result in words
Method: (§1) MICs were determined according to the standard protocol from the Clinical and Laboratory Standards Institute ([23]). Briefly, S. aureus bacteria were harvested from regular MHA plates that had been cultured for ~20 h at 37°C. Serial dilutions of compound 103 were incubated with bacteria at approximately 10^6 CFU (CFU)/ml in MHB in round-bottom 96 well plates (Corning, Corning, NY) for 22 h at 37°C. MICs were determined by the lowest concentration of compound 103 showing absence of growth by visual inspection.
A strain of USA300 Δmcr overexpressing SpsB (USA300 SpsB-high; GNE0028) was engineered by cloning SpsB under the constitutive sarA promoter into vector pMK4, resulting in SpsB expression that was ~20-fold higher than the wild-type level as determined by Western blotting. A USA300 Δmcr strain that underexpresses SpsB (USA300 SpsB-low; […]) was generated by genomic incorporation of spsB under the isopropyl-β-D-thiogalactopyranoside (IPTG)-sensitive promoter spac; without IPTG, this strain expresses SpsB at ~5% of the wild-type level as determined by Western blotting.

S. aureus USA300 = test: Frequency of spontaneous resistance, USA300; format: cell-based; conditions: agar with compound 103 at fourfold its MIC; 37°C, 2 days; output/input CFU
Method: To determine the frequency of spontaneous resistance, suspensions containing approximately 5 × 10^9 CFU of S. aureus were cultured on MHA plates containing compound 103 at fourfold the MIC; serial dilutions were cultured in parallel on regular MHA to determine the actual number of CFU (input). The frequency of spontaneous resistance was defined as the number of viable colonies able to grow in the presence of compound 103 after culture at 37°C for 2 days (output) divided by input.

[2] = test system: USA300 WT(pMK4) (GNE0163); test: MIC fold increase, GNE0163; format: cell-based, S. aureus
Method: as §1

[3] = test system: psarA-SAUSA300_0351_0352_0353 (GNE0162); test: MIC fold increase, GNE0162; format: cell-based, S. aureus
Method: as §1
(§2) To generate mutations in SAUSA300_0351, _0352, and _0353 genes by homologous recombination, we transformed USA300 Δmcr using targeting constructs created in the vector pIMAY ([24]). To generate mutations in SAUSA300_0351, _0352, and _0353 genes in a cro/cI mutant background, we selected colonies from USA300 Δmcr cultured on plates containing fourfold the MIC of compound 103. Sequencing of PCR products of the cro/cI gene from resistant colonies yielded a clone with a Q16stop codon mutation in cro/cI (strain GNE0173). We further mutated SAUSA300_0351, _0352, and _0353 in this USA300 Δmcr cro/cI (Q16stop) clone to study the contributions of these three genes to cro/cI-mediated resistance.

[4] = test system: cro/cI(M1V)(pcro/cI-cro/cI) (GNE0109); test: MIC fold increase, GNE0109; format: cell-based, S. aureus
Method: as §1

[5] = test system: cro/cI(−14G→T)(pcro/cI-cro/cI) (GNE0097); test: MIC fold increase, GNE0097; format: cell-based, S. aureus
Method: as §1

[6] = test system: cro/cI(−62G→A)(pMK4) (GNE0099); test: MIC fold increase, GNE0099; format: cell-based, S. aureus
Method: as §1

[7] = test system: Δmcr cro/cI(Q16stop) Δ(SAUSA300_0351-SAUSA300_0352-SAUSA300_0353) (GNE0220); test: MIC fold increase, GNE0220; format: cell-based, S. aureus
Method: as §1, §2

[8] = test system: Δmcr cro/cI(Q16stop) SAUSA300_0352(K44A) (GNE0175); test: MIC fold increase, GNE0175; format: cell-based, S. aureus
Method: as §1, §2

[9] = test system: SpsB Y30C mutant of USA300 Δmcr cro/cI(Q16stop) SAUSA300_0352(K44A); test: MIC fold increase, SpsB Y30C mutant; format: cell-based, S. aureus
Method: as §1

[10] = test system: SpsB Y30N mutant of USA300 Δmcr cro/cI(Q16stop) SAUSA300_0352(K44A); test: MIC fold increase, SpsB Y30N mutant; format: cell-based, S. aureus
Method: as §1

[11] = test system: SpsB Y30S mutant of USA300 Δmcr cro/cI(Q16stop) SAUSA300_0352(K44A); test: MIC fold increase, SpsB Y30S mutant; format: cell-based, S. aureus
Method: as §1

[12] = test system: SpsB H68Y mutant of USA300 Δmcr cro/cI(Q16stop) SAUSA300_0352(K44A); test: MIC fold increase, SpsB H68Y mutant; format: cell-based, S. aureus
Method: as §1

CCCCc1ccc(-c2ccc(C(=O)N[C@@H](CCCCN)C(=O)N(C)[C@@H]3C(=O)N[C@@H](C)C(=O)N[C@H](C(=O)NCC(C)C(=O)O)Cc4ccc(O)c(c4)-c4cc3ccc4O)cc2)cc1 (stereo partly drawn) [Compound 103]
MIC for a strain that underexpresses SpsB [1]: reduced MIC | frequency of spontaneous resistance (S. aureus USA300): 3 × 10^−7 | MIC of compound 103 (fold increase versus MIC for USA300 WT) [2]: 1.0 fold | MIC of compound 103 (fold increase versus MIC for USA300 WT) ([3]; GNE0162): >32 fold | resistance phenotype ([3]; GNE0162, overexpression of 3 ABC transporter genes, result in words): induced resistance | MIC of compound 103 (fold increase versus MIC for USA300 WT) ([4]; GNE0109): 1.7 fold | resistance phenotype ([4]; GNE0109, plasmid-encoded WT cro/cI, result in words): reversed the resistant phenotype | MIC of compound 103 (fold increase versus MIC for USA300 WT) ([5]; GNE0097): 3.0 fold | resistance phenotype ([5]; GNE0097, plasmid-encoded WT cro/cI, result in words): reversed the resistant phenotype | MIC of compound 103 (fold increase versus MIC for USA300 WT) [6]: >32 fold | MIC of compound 103 (fold increase versus MIC for USA300 WT) ([7]; GNE0220): 2.0 fold | resistance phenotype ([7]; GNE0220, deletion of all 3 ABC transporter genes, result in words): reversed the resistant phenotype | MIC of compound 103 (fold increase versus MIC for USA300 WT) ([8]; GNE0175): 1.0 fold | resistance phenotype ([8]; GNE0175, SAUSA300_0352(K44A), result in words): reversed the resistant phenotype | MIC of compound 103 (fold increase versus MIC for USA300 WT) [9]: 4 fold | MIC of compound 103 (fold increase versus MIC for USA300 WT) [10]: 4 fold | MIC of compound 103 (fold increase versus MIC for USA300 WT) [11]: 4 fold | MIC of compound 103 (fold increase versus MIC for USA300 WT) [12]: 8 fold
